From patent US12655116B2, “Substituted isophthalic acid diamides” (Bayer Aktiengesellschaft, priority 2020, dated 2026)

Assays:
[1] = test system: AMARE; test: Post-emergence herbicidal action against AMARE; assay type: in vivo, Amaranthus retroflexus; conditions: Amaranthus retroflexus, 504 h, visual assessment about 3 weeks after treatment, 100% = plants have died, 0% = like control plants
How it was run: (§1)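 Greenhouse pot plants in sandy loam were sprayed at the one-leaf stage, 2 to 3 weeks after sowing, with WP or EC formulations as aqueous suspension or emulsion (600 to 800 l/ha water, 0.2% wetting agent). About 3 weeks later, damage was scored visually against untreated controls as % action (100% = dead, 0% = like control).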

[2] = test system: POLCO; test: Pre-emergence herbicidal action against POLCO; assay type: in vivo, Polygonum convolvulus; conditions: Fallopia convolvulus, 504 h, dosage 320 g/ha
How it was run: (§2)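 Visual rating at 3 weeks vs untreated pots; 0–100% scale, 100% = plants died. Treatment: aqueous WP/EC spray onto covering soil, 600–800 l/ha, 0.2% wetter, seeds in sandy loam.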

[3] = test system: ABUTH; test: Post-emergence herbicidal action against ABUTH; assay type: in vivo, Abutilon theophrasti; conditions: Abutilon theophrasti, 504 h, visual assessment about 3 weeks after treatment vs untreated controls; for pest or weed control at 20 g/ha: dosage 20 g/ha; for pest or weed control at 80 g/ha: dosage 80 g/ha
How it was run: as §1

[4] = test system: VERPE; test: Post-emergence herbicidal action against VERPE; assay type: in vivo, Veronica persica; conditions: Veronica persica, 504 h
How it was run: as §1

[5] = test system: ECHCG; test: Pre-emergence herbicidal action against ECHCG; assay type: in vivo, Echinochloa crus-galli; conditions: Echinochloa crus-galli, 504 h
How it was run: as §2

[6] = test system: STEME; test: Pre-emergence herbicidal action against STEME; assay type: in vivo, Stellaria media; conditions: Stellaria media, 504 h; for pest or weed control at 80 g/ha: dosage 80 g/ha; for pest or weed control at 320 g/ha: dosage 320 g/ha
How it was run: as §2

[7] = test system: ECHCG; test: Post-emergence herbicidal action against ECHCG; assay type: in vivo, Echinochloa crus-galli; conditions: Echinochloa crus-galli, 504 h; for pest or weed control at 20 g/ha: dosage 20 g/ha; for pest or weed control at 80 g/ha: dosage 80 g/ha
How it was run: as §1

[8] = test system: ALOMY; test: Post-emergence herbicidal action against ALOMY; assay type: in vivo, Alopecurus myosuroides; conditions: Alopecurus myosuroides, 504 h, visual assessment about 3 weeks after treatment vs untreated controls; for pest or weed control at 20 g/ha: dosage 20 g/ha; for pest or weed control at 80 g/ha: dosage 80 g/ha
How it was run: as §1

[9] = test system: MATIN; test: Post-emergence herbicidal action against MATIN; assay type: in vivo, Matricaria inodora; conditions: Tripleurospermum inodorum, 504 h; for pest or weed control at 20 g/ha: dosage 20 g/ha; for pest or weed control at 80 g/ha: dosage 80 g/ha
How it was run: as §1

[10] = test system: POLCO; test: Post-emergence herbicidal action against POLCO; assay type: in vivo, Polygonum convolvulus; conditions: Fallopia convolvulus, 504 h; for pest or weed control at 80 g/ha: dosage 80 g/ha; for pest or weed control at 20 g/ha: dosage 20 g/ha
How it was run: as §1

[11] = test system: AVEFA; test: Post-emergence herbicidal action against AVEFA; assay type: in vivo, Avena fatua; conditions: Avena fatua, 504 h, visual assessment about 3 weeks after treatment, 100% = plants have died, 0% = like control plants
How it was run: as §1

[12] = test system: ABUTH; test: Pre-emergence herbicidal action against ABUTH; assay type: in vivo, Abutilon theophrasti; conditions: Abutilon theophrasti, 504 h; for pest or weed control at 80 g/ha: scored visually after 3 weeks vs untreated controls (100% = plants have died, 0% = like control plants); for pest or weed control at 320 g/ha: Dosage: 320 g/ha, scored visually after 3 weeks, 100% = plants have died, 0% = like control plants
How it was run: as §2

[13] = test system: VIOTR; test: Post-emergence herbicidal action against VIOTR; assay type: in vivo, Viola tricolor; conditions: Viola tricolor, 504 h
How it was run: as §1

[14] = test system: AVEFA; test: Pre-emergence herbicidal action against AVEFA; assay type: in vivo, Avena fatua; conditions: Avena fatua, 504 h, pre-emergence; for pest or weed control at 320 g/ha: scored visually after 3 weeks, 100% = plants have died, 0% = like control plants
How it was run: as §2

[15] = test system: VERPE; test: Pre-emergence herbicidal action against VERPE; assay type: in vivo, Veronica persica; conditions: Veronica persica, 504 h; for pest or weed control at 80 g/ha: dosage 80 g/ha; for pest or weed control at 320 g/ha: dosage 320 g/ha
How it was run: as §2

[16] = test system: MATIN; test: Pre-emergence herbicidal action against MATIN; assay type: in vivo, Matricaria inodora; conditions: Tripleurospermum inodorum, 504 h; for pest or weed control at 80 g/ha: dosage 80 g/ha; for pest or weed control at 320 g/ha: dosage 320 g/ha
How it was run: as §2

[17] = test system: LOLRI; test: Post-emergence herbicidal action against LOLRI; assay type: in vivo, Lolium rigidum; conditions: Lolium rigidum, 504 h; for pest or weed control at 80 g/ha: dosage 80 g/ha
How it was run: as §1

[18] = test system: LOLRI; test: Pre-emergence herbicidal action against LOLRI; assay type: in vivo, Lolium rigidum; conditions: Lolium rigidum, 504 h, 320 g/ha
How it was run: as §2

[19] = test system: HORMU; test: Pre-emergence herbicidal action against HORMU; assay type: in vivo, Hordeum murinum; conditions: Hordeum murinum, 504 h, pre-emergence
How it was run: as §2

[20] = test system: HORMU; test: Post-emergence herbicidal action against HORMU; assay type: in vivo, Hordeum murinum; conditions: Hordeum murinum, 504 h; for pest or weed control at 80 g/ha: dosage 80 g/ha; for pest or weed control at 20 g/ha: dosage 20 g/ha
How it was run: as §1

[21] = test system: STEME; test: Post-emergence herbicidal action against STEME; assay type: in vivo, Stellaria media; conditions: Stellaria media, 504 h
How it was run: as §1

[22] = test system: PHBPU; test: Post-emergence herbicidal action against PHBPU; assay type: in vivo, Pharbitis purpurea; conditions: Ipomoea purpurea, 504 h
How it was run: as §1

[23] = test system: SETVI; test: Post-emergence herbicidal action against SETVI; assay type: in vivo, Setaria viridis; conditions: Setaria viridis, 504 h, dosage 80 g/ha
How it was run: as §1

| SMILES | pest or weed control at 20 g/ha [1] | pest or weed control at 80 g/ha [1] | pest or weed control at 320 g/ha [2] | pest or weed control at 20 g/ha [3] | pest or weed control at 80 g/ha [3] | pest or weed control at 20 g/ha [4] | pest or weed control at 80 g/ha [4] | pest or weed control at 80 g/ha [5] | pest or weed control at 320 g/ha [5] | pest or weed control at 80 g/ha [6] | pest or weed control at 320 g/ha [6] | pest or weed control at 20 g/ha [7] | pest or weed control at 80 g/ha [7] | pest or weed control at 20 g/ha [8] | pest or weed control at 80 g/ha [8] | pest or weed control at 20 g/ha [9] | pest or weed control at 80 g/ha [9] | pest or weed control at 80 g/ha [10] | pest or weed control at 20 g/ha [11] | pest or weed control at 80 g/ha [11] | other results |
| --- | --- | --- | --- | --- | --- | --- | --- | --- | --- | --- | --- | --- | --- | --- | --- | --- | --- | --- | --- | --- | --- |
| CCNC(=O)c1c(C(F)F)ccc(C(=O)Nc2nnnn2C)c1Cl [Example 1-148] | 90% | 90% | 80% | 90% | 90% | 80% | 80% | 100% | 100% | 100% | 100% | 80% | 80% | 80% | 90% | 100% | 100% | 80% | 100% | 100% | pest or weed control at 80 g/ha [12]: 100%; pest or weed control at 320 g/ha [12]: 100%; pest or weed control at 20 g/ha ([13]; 20 g/ha): 80%; pest or weed control at 80 g/ha [13]: 90%; pest or weed control at 80 g/ha [14]: 100%; pest or weed control at 320 g/ha [14]: 100%; pest or weed control at 80 g/ha [15]: 80%; pest or weed control at 320 g/ha [15]: 100%; pest or weed control at 80 g/ha [16]: 100%; pest or weed control at 320 g/ha [16]: 100%; pest or weed control at 20 g/ha ([17]; dosage 20 g/ha): 80%; pest or weed control at 80 g/ha [17]: 90%; pest or weed control at 320 g/ha [18]: 90%; pest or weed control at 80 g/ha [19]: 90%; pest or weed control at 320 g/ha [19]: 100%; pest or weed control at 80 g/ha [20]: 90%; pest or weed control at 20 g/ha [21]: 90%; pest or weed control at 80 g/ha [21]: 90% |
| CNC(=O)c1c(C(F)F)ccc(C(=O)Nc2nnnn2C)c1Cl [Example 1-147] | 90% | 90% | 90% | 90% | 90% | 90% | 90% | 100% | 100% | 100% | 100% | 90% | 90% | 80% | 90% | 100% | 100% | 90% | 90% | 90% | pest or weed control at 20 g/ha ([22]; dosage 20 g/ha): 80%; pest or weed control at 80 g/ha ([22]; dosage 80 g/ha): 90%; pest or weed control at 20 g/ha [10]: 90%; pest or weed control at 80 g/ha [12]: 90%; pest or weed control at 320 g/ha [12]: 100%; pest or weed control at 80 g/ha [13]: 80%; pest or weed control at 80 g/ha [14]: 100%; pest or weed control at 320 g/ha [14]: 100%; pest or weed control at 320 g/ha [15]: 90%; pest or weed control at 80 g/ha [16]: 90%; pest or weed control at 320 g/ha [16]: 100%; pest or weed control at 80 g/ha [17]: 90%; pest or weed control at 320 g/ha [18]: 100%; pest or weed control at 80 g/ha [19]: 90%; pest or weed control at 320 g/ha [19]: 100%; pest or weed control at 20 g/ha [20]: 80%; pest or weed control at 80 g/ha [20]: 90%; pest or weed control at 20 g/ha [21]: 80%; pest or weed control at 80 g/ha [21]: 90% |
| CCNC(=O)c1c(C(F)F)ccc(C(=O)Nc2nnnn2CC)c1Cl [Example 2-148] | 90% | 90% | 100% | 90% | 90% | 80% | 90% | 100% | 100% | 90% | 100% | 80% | 90% | 80% | 90% | 90% | 90% | 90% | 90% | 90% | pest or weed control at 80 g/ha [23]: 80%; pest or weed control at 20 g/ha [10]: 90%; pest or weed control at 80 g/ha [12]: 100%; pest or weed control at 320 g/ha [12]: 100%; pest or weed control at 80 g/ha [13]: 80%; pest or weed control at 80 g/ha [14]: 100%; pest or weed control at 320 g/ha [14]: 100%; pest or weed control at 80 g/ha [15]: 80%; pest or weed control at 320 g/ha [15]: 100%; pest or weed control at 80 g/ha [16]: 100%; pest or weed control at 320 g/ha [16]: 100%; pest or weed control at 80 g/ha [17]: 80%; pest or weed control at 320 g/ha [18]: 90%; pest or weed control at 80 g/ha [19]: 90%; pest or weed control at 320 g/ha [19]: 100%; pest or weed control at 20 g/ha [20]: 80%; pest or weed control at 80 g/ha [20]: 90%; pest or weed control at 20 g/ha [21]: 80%; pest or weed control at 80 g/ha [21]: 80% |
